In patent US9725414B2, “Fungicidal N-bicycloalkyl and N-tricycloalkyl pyrazole-4-(thio)carboxamide derivatives” (priority 2011, dated 2017):
Values belong to the compound of their own block, whether it stands above or below them.

Tests used:
[1] = log P by HPLC on reversed-phase column (C 18), EEC Directive 79831 Annex V.A8; assay type: physicochemical; settings: HPLC reversed-phase C 18, 40° C., 0.1% aqueous formic acid and acetonitrile gradient; several values = mixture of two or more isomers
How it was run: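 Reversed-phase C18 HPLC at 40° C, 0.1% aqueous formic acid/acetonitrile linear gradient 10% to 90% acetonitrile, per EEC Directive 79831 Annex V.A8. log P obtained from retention time by linear interpolation between unbranched alkan-2-ones (C3-C16) of known log P.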

Puccinia triticina = test: Example L: in vivo preventive test on Puccinia triticina (wheat); settings: 500 ppm of active ingredient, evaluated 8 days after inoculation
Experimental: In Vivo Preventive Test on Puccinia triticina (Wheat)
Solvent: 49 parts by weight of N,N-dimethylacetamide
Emulsifier: 1 part by weight of alkylaryl polyglycol ether
To produce a suitable preparation of active compound, 1 part by weight of active compound or active compound combination is mixed with the stated amounts of solvent and emulsifier, and the concentrate is diluted with water to the desired concentration.
To test for preventive activity, young plants are sprayed with the preparation of active compound or active compound combination at the stated rate of application.
After the spray coating has been dried, the plants are sprayed with a spore suspension of Puccinia triticina.
The plants remain for 48 hours in an incubation cabinet at approximately 20° C. and a relative atmospheric humidity of approximately 100%.
The plants are placed in the greenhouse at a temperature of approximately 20° C. and a relative atmospheric humidity of approximately 80%.
The test is evaluated 8 days after the inoculation. 0% means an efficacy which corresponds to that of the untreated control, while an efficacy of 100% means that no disease is observed.

Leptosphaeria nodorum = test: Example K: in vivo preventive test on Leptosphaeria nodorum (wheat); settings: 500 ppm of active ingredient, evaluated 8 days after inoculation
Experimental: (§1) In Vivo Preventive Test on Leptosphaeria nodorum (Wheat) Solvent: 49 parts by weight of N,N-dimethylacetamide Emulsifier: 1 part by weight of alkylaryl polyglycol ether To produce a suitable preparation of active compound, 1 part by weight of active compound or active compound combination is mixed with the stated amounts of solvent and emulsifier, and the concentrate is diluted with water to the desired concentration. To test for preventive activity, young plants are sprayed with the preparation of active compound or active compound combination at the stated rate of application. After the spray coating has been dried, the plants are sprayed with a spore suspension of Leptosphaeria nodorum. The plants remain for 48 hours in an incubation cabinet at approximately 20° C. and a relative atmospheric humidity of approximately 100%.

[2] = tested on: Fusarium nivale (var. majus); test: Example N: in vivo preventive test on Fusarium nivale (wheat); settings: 500 ppm of active ingredient, evaluated 5 days after inoculation
Experimental: In Vivo Preventive Test on Fusarium nivale (Wheat) Solvent: 49 parts by weight of N,N-dimethylacetamide Emulsifier: 1 part by weight of alkylaryl polyglycol ether To produce a suitable preparation of active compound, 1 part by weight of active compound or active compound combination is mixed with the stated amounts of solvent and emulsifier, and the concentrate is diluted with water to the desired concentration. To test for preventive activity, young plants are sprayed with the preparation of active compound or active compound combination at the stated rate of application. After the spray coating has been dried, the plants are slightly injured by using a sandblast and afterwards they are sprayed with a conidia suspension of Fusarium nivale (var. majus). The plants are placed in the greenhouse under a translucent incubation cabinet at a temperature of approximately 10° C. and a relative atmospheric humidity of approximately 100%.

Septoria tritici [3] = test: Example I: in vivo preventive test on Septoria tritici (wheat), acetone/tween/DMSO preparation; settings: 500 ppm of active ingredient, grading 24 days after contamination
How it was run: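 Scipion wheat grown at 22° C, sprayed at 1-leaf stage (10 cm); controls received acetone/tween/DMSO/water without active. Inoculated 24 h later with S. tritici spores (500 000/mL), held 72 h at 18° C, 100% RH, then 21 days at 90% RH. % efficacy vs controls scored 24 days post-inoculation.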

[4] = tested on: Blumeria graminis f.sp. hordei; test: Example J: in vivo preventive test on Blumeria graminis (barley); settings: 500 ppm of active ingredient, evaluated 7 days after inoculation
Experimental: In Vivo Preventive Test on Blumeria graminis (Barley) Solvent: 49 parts by weight of N,N-dimethylacetamide Emulsifier: 1 part by weight of alkylaryl polyglycol ether To produce a suitable preparation of active compound, 1 part by weight of active compound or active compound combination is mixed with the stated amounts of solvent and emulsifier, and the concentrate is diluted with water to the desired concentration. To test for preventive activity, young plants are sprayed with the preparation of active compound or active compound combination at the stated rate of application. After the spray coating has been dried, the plants are dusted with spores of Blumeria graminis f.sp. hordei.

Sphaerotheca fuliginea = test: Example B: in vivo preventive test on Sphaerotheca fuliginea (powdery mildew on cucurbits), gherkin plants; settings: 500 ppm of active ingredient, grading 12 days after contamination
How it was run: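 Gherkin plants grown at 24 °C were sprayed with compound at the Z11 cotyledon stage; controls received acetone/tween/DMSO/water without active. 24 h later, cotyledons were inoculated by spraying with Sphaerotheca fuliginea spores (100 000 spores per mL).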

Septoria tritici [5] = test: Example H: in vivo preventive test on Septoria tritici (wheat), N,N-dimethylacetamide/emulsifier preparation; settings: 500 ppm of active ingredient, evaluated 21 days after inoculation
Experimental: as §1, with “Test on Septoria tritici (Wheat) Solvent:” for “Test on Leptosphaeria nodorum (Wheat) Solvent:”, “suspension of Septoria tritici. The plants” for “suspension of Leptosphaeria nodorum. The plants”, “of approximately 100% and afterwards for 60 hours at approximately 15° C. in a translucent incubation cabinet at a relative atmospheric humidity of approximately 100%.” for “of approximately 100%.”

- logP [1]: 4.11
SMILES: Cn1nc(C(F)F)c(C(=O)N(C2CC2)C2CC3CCCCC3C2)c1F (stereo not drawn) [Example 12]
- Efficacy (Puccinia triticina): 100%
- Efficacy (Leptosphaeria nodorum): 93%
- Efficacy [2]: 100%
- Efficacy (Septoria tritici [3]): 100%
- Efficacy [4]: 100%
- Efficacy (Sphaerotheca fuliginea): 98%
- Efficacy (Septoria tritici [5]): 100%

- logP [1]: 3.99
SMILES: Cn1nc(C(F)F)c(C(=O)N(C2CC2)C2CCCC3CCCC32)c1F (stereo not drawn) [Example 19]
- Efficacy (Puccinia triticina): 100%
- Efficacy (Leptosphaeria nodorum): 100%
- Efficacy [2]: 100%
- Efficacy (Septoria tritici [3]): 96%
- Efficacy [4]: 100%
- Efficacy (Sphaerotheca fuliginea): 100%
- Efficacy (Septoria tritici [5]): 100%

- logP [1]: 3.48
SMILES: Cn1cc(C(=O)N(C2CC2)C2CCCC3CCCC32)c(C(F)F)n1 (stereo not drawn) [Example 20]
- Efficacy (Puccinia triticina): 78%
- Efficacy (Leptosphaeria nodorum): 86%
- Efficacy [2]: 100%
- Efficacy (Septoria tritici [3]): 96%
- Efficacy [4]: 95%
- Efficacy (Sphaerotheca fuliginea): 100%
- Efficacy (Septoria tritici [5]): 100%

- logP [1]: 4.41
SMILES: Cn1nc(C(F)F)c(C(=O)N(CC2CCC3CCCC3C2)C2CC2)c1F (stereo not drawn) [Example 62]
- Efficacy (Puccinia triticina): 100%
- Efficacy (Leptosphaeria nodorum): 100%
- Efficacy [2]: 100%
- Efficacy (Septoria tritici [3]): 100%
- Efficacy [4]: 100%
- Efficacy (Sphaerotheca fuliginea): 100%
- Efficacy (Septoria tritici [5]): 100%

- logP [1]: 4.91
SMILES: Cn1nc(C(F)F)c(C(=O)N(CC2(Cc3ccccc3)CC3CCC2C3)C2CC2)c1F (stereo not drawn) [Example 69]
- Efficacy (Leptosphaeria nodorum): 100%
- Efficacy [2]: 93%
- Efficacy (Septoria tritici [3]): 97%
- Efficacy [4]: 100%
- Efficacy (Sphaerotheca fuliginea): 100%
- Efficacy (Septoria tritici [5]): 100%

- logP [1]: 3.58
SMILES: Cn1nc(C(F)F)c(C(=O)N(CC2CC3CCC2C3)C2CC2)c1F (stereo not drawn) [Example 71]
- Efficacy (Puccinia triticina): 100%
- Efficacy (Leptosphaeria nodorum): 100%
- Efficacy [2]: 100%
- Efficacy [4]: 100%
- Efficacy (Septoria tritici [5]): 100%

- logP [1]: 4.01
SMILES: CC(C1CC2CCC1C2)N(C(=O)c1c(C(F)F)nn(C)c1F)C1CC1 (stereo not drawn) [Example 93]
- Efficacy (Puccinia triticina): 100%
- Efficacy (Leptosphaeria nodorum): 100%
- Efficacy [2]: 100%
- Efficacy [4]: 100%
- Efficacy (Septoria tritici [5]): 83%
